Values quoted from earlier work, collected in patent US8155888B2, “Method and apparatus for assessing polypeptide aggregation” (Cambridge University Technical Services Ltd., priority 2003, dated 2012).
Like-named read-outs stand apart in the source and are kept apart here. Where no end group is shown, it is not given here.

Key:
[1] = not given; remark: listed apart in the source
[2] = not given; remark: listed apart in the source
[3] = mutant versus wild type; growth phase only; from literature data
[4] = Table 1, neutral pH, partition coefficients from water to octanol
[5] = Table 5, neutral pH, partition coefficients from water to octanol
[6] = Table 1, normalised from 0 (high) to 1 (low)
[7] = Table 5, normalized from 0 (high) to 1 (low)

Compound	hydrophobicity [4] [kJ/mol]	hydrophobicity [5] [kJ/mol]	β-sheet propensity [1, 6]	β-sheet propensity [1, 7]	charge ([2]; Table 1, neutral pH)	charge ([2]; Table 5, neutral pH)	observed ln(νmut/νwt) [3]	further results
CC[C@H](C)[C@H](N)C(=O)O [Ile (I)]	-1.82	-7.61	0.10	0.10	0	0		
N22A: single-point mutation N22A of amylin (KCNTATCATQRLANFLVHSSNAFGAILSSTNVGSNTY; ends and bridges not checked; cysteine pairing not given here; UniProt P10997 34-70, looked up, variant N22A)							0.69	
E22K: E22K mutation of Aβ (amyloid-β peptide)							0.92	
E22Q: E22Q mutation of Aβ (amyloid-β peptide)							2.92	
F19T: F19T mutation of Aβ (amyloid-β peptide)							−2.48	
N[C@@H](Cc1ccc(O)cc1)C(=O)O [Tyr (Y)]	-1.47	-6.15	0.11	0.11	0	0		
A21G: A21G mutation of Aβ (amyloid-β peptide)							−0.07	
D23N: D23N mutation of Aβ (amyloid-β peptide)							3.97	
I26A: single-point mutation I26A of amylin (KCNTATCATQRLANFLVHSSNNFGAALSSTNVGSNTY; ends and bridges not checked; cysteine pairing not given here; UniProt P10997 34-70, looked up, variant I26A)							−2.39	
O=C(O)[C@@H]1CCCN1 [Pro (P), proline]	-0.99	-4.14			0	0		
S20G: S20G mutation of amylin (KCNTATCATQRLANFLVHSGNNFGAILSSTNVGSNTY; ends and bridges not checked; cysteine pairing not given here; UniProt P10997 34-70, looked up, variant S20G)							1.01	
NCC(=O)O [Gly (G), glycine]	0.00	0	0.60	0.60	0	0		
CC(C)[C@H](N)C(=O)O [Val (V)]		-5.44	0.13	0.13	0	0		
E22G: E22G mutation of Aβ (amyloid-β peptide)							2.03	
F23A: single-point mutation F23A of amylin (KCNTATCATQRLANFLVHSSNNAGAILSSTNVGSNTY; ends and bridges not checked; cysteine pairing not given here; UniProt P10997 34-70, looked up, variant F23A)							−2.65	
G24A: single-point mutation G24A of amylin (KCNTATCATQRLANFLVHSSNNFAAILSSTNVGSNTY; ends and bridges not checked; cysteine pairing not given here; UniProt P10997 34-70, looked up, variant G24A)							−0.03	
L27A: single-point mutation L27A of amylin (KCNTATCATQRLANFLVHSSNNFGAIASSTNVGSNTY; ends and bridges not checked; cysteine pairing not given here; UniProt P10997 34-70, looked up, variant L27A)							−0.93	

Further lines, with some results ahead:

hydrophobicity [4] [kJ/mol]	hydrophobicity [5] [kJ/mol]	β-sheet propensity [1, 6]	β-sheet propensity [1, 7]	charge ([2]; Table 1, neutral pH)	charge ([2]; Table 5, neutral pH)	Compound	observed ln(νmut/νwt) [3]	further results
3.81	15.9	0.72	0.72	−1	−1	N[C@@H](CC(=O)O)C(=O)O [Asp (D), aspartic acid]		
-0.25	-1.05	0.25	0.25	0	0	N[C@@H](CS)C(=O)O [Cys (C)]		
1.30	5.44	0.34	0.34	0	0	NC(=O)CC[C@H](N)C(=O)O [Gln (Q)]		
-0.39	-1.63	0.47	0.47	0	0	C[C@H](N)C(=O)O [Ala (A)]		
1.24	5.19	0.30	0.30	0	0	N[C@@H](CO)C(=O)O [Ser (S), serine]		
1.00	4.18	0.06	0.06	0	0	C[C@@H](O)[C@H](N)C(=O)O [Thr (T)]		
		0.35	0.35	−1	−1	N[C@@H](CCC(=O)O)C(=O)O [Glu (E), glutamic acid]		
-0.96	-4.02	0.26	0.26	0	0	CSCC[C@H](N)C(=O)O [Met (M)]		
1.91	7.99	0.40	0.40	0	0	NC(=O)C[C@H](N)C(=O)O [Asn (N)]		
0.64	2.68	0.37	0.37	0	0	N[C@@H](Cc1c[nH]cn1)C(=O)O [His (H), histidine]		hydrophobicity (Table 1, value in brackets, pH lower than 6.0, histidine positively charged): 2.87 kJ/mol; hydrophobicity (Table 5, value in brackets, pH lower than 6.0, histidine positively charged): 12 kJ/mol; charge ([2]; Table 1, value in brackets, pH lower than 6.0): +1; charge ([2]; Table 5, value in brackets, pH lower than 6.0): +1
-2.27	-9.5	0.13	0.13	0	0	N[C@@H](Cc1ccccc1)C(=O)O [Phe (F), phenylalanine]		
